Assay [1] relates to HCT116 cells. The assay is described as follows: MTT assay. Format: cell-based. The following applies: Homo sapiens, HCT116 cells, 72 hours. The method, then: HCT116 cells (2000/well) were plated into 96-well tissue culture plates one day before compound treatment. Compounds at various concentrations were added to the cells. The cells were incubated for 72 hours at 37° C. in 5% CO2 incubator. MTT (3-[4,5-dimethylthiazol-2-yl]-2,5 diphenyl tetrazolium bromide, Sigma) was added at a final concentration of 0.5 mg/ml and incubated with the cells for 4 hours before one volume of solubilization buffer (50% N,N-dimethylformamide, 20% SDS, pH 4.7) was added onto the cultured cells. […] OD values were converted to cell numbers according to a standard growth curve of the relevant cell line.

Assay [2] has as its target T1, cloned recombinant human HDAC-1 (Homo sapiens, UniProt Q13547).
T1 construct: made in house; host or cells: Baculovirus insect cell expression system
The assay is described as follows: Human HDAC-1 enzyme inhibition, Assay 1 ([3H]-acetylated histone substrate, scintillation counting). Format: biochemical. The method, then: Assay 1. HDAC inhibitors were screened against a cloned recombinant human HDAC-1 enzyme expressed and purified from a Baculovirus insect cell expression system. […] The mixture was extracted with ethyl acetate and the released [^3H]-acetic acid was quantified by scintillation counting. For inhibition studies, the enzyme was preincubated with compounds at 4° C. for 30 minutes prior to initiation of the enzymatic assay. IC50 values for HDAC enzyme inhibitors were determined by performing dose response curves with individual compounds and determining the concentration of inhibitor producing fifty percent of the maximal inhibition.

Where [3] appears, read: Table 5d, read-out: HDAC-1 IC50.
[4] abbreviates: Table 5b, read-out: Human HDAC-1 IC50.
[5] abbreviates: Table 5F, read-out: Human HDAC-1 IC50.
Setting [6] is: Table 5c, read-out: Human HDAC-1 IC50.

Read-outs that look alike come from different tables or passages of the source.

T1 sequence (Q13547 whole entry): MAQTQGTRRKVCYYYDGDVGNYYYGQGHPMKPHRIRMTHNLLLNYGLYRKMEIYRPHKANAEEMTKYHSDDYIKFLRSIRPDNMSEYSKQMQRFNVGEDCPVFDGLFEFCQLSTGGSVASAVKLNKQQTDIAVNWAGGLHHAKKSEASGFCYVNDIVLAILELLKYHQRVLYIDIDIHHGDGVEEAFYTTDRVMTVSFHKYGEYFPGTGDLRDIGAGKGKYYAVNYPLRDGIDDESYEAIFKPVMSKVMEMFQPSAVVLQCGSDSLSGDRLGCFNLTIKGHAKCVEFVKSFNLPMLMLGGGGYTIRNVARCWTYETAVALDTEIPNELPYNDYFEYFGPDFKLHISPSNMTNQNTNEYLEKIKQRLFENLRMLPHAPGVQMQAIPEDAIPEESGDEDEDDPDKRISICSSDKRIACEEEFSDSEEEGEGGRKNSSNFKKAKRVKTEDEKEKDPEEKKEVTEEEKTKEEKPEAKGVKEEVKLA

Regarding `Nc1ccccc1NC(=O)/C=C/c1ccc(CNc2cccc([N+](=O)[O-])c2)cc1` [Cpd 551, N-(2-Amino-phenyl)-3-{4-[(3-nitro-phenylamino)-methyl]-phenyl}-acrylamide], the IC50 (in general, the midpoint of a concentration-inhibition curve) in assay [1] (HCT-116, Table 5d) was determined as 9 µM; in assay [2] (setting [3]), 24 µM.
For `COc1cc(NCc2ccc(/C=C/C(=O)Nc3ccccc3N)cc2)cc(OC)c1` [Cpd 494], in that order: 4 µM and 3 µM.
Take `Nc1ccccc1NC(=O)c1ccc(CNc2nc(NCCc3cccnc3)nc(NC3CC3)n2)cc1` [Cpd 481]: the IC50 in assay [1] (HCT-116, 72 h, Table 5b) turned out to be 0.7 µM; in assay [2] (setting [4]), 6 µM.
For the compound `Nc1ccccc1NC(=O)/C=C/c1ccc(NCc2cccc(OC(F)(F)F)c2)cc1` [Cpd 496, N-(2-Amino-phenyl)-3-[4-(3-trifluoromethoxy-benzylamino)-phenyl]-acrylamide], the IC50 in assay [1] (HCT-116, Table 5d) was determined as 13 µM; in assay [2] (setting [3]) it was 8 µM.
In the case of `Cc1nc(NCc2ccc(C(=O)Nc3ccccc3N)cc2)nc(NC2Cc3ccccc3C2)n1` [Cpd 218], the IC50 in assay [1] (HCT-116, 72 h, Table 5b) turned out to be 0.5 µM; in assay [2] (setting [4]) it was 0.1 µM.
With `Nc1ccccc1NC(=O)c1ccc(CNc2nccc3ccccc23)cc1` [Cpd 399, N-(2-Amino-phenyl)-4-(isoquinolin-1-ylaminomethyl)-benzamide], the IC50 amounted to 9 µM in assay [1] (HCT-116, 72 h, Table 5F) and 14 µM in assay [2] (setting [5]).
As for `Nc1ccccc1NC(=O)c1ccc(CCN2C(=O)c3ccccc3C2=O)cc1` [Cpd 152, N-(2-Amino-phenyl)-4-[2-(1,3-dioxo-1,3-dihydro-isoindol-2-yl)-ethyl]-benzamide], the IC50 in assay [1] (HCT-116, 72 h, Table 5E) came to 11 µM; in assay [2] (Table 5E, read-out: Human HDAC-1 IC50), 0.3 µM.
In the case of `Nc1ccccc1NC(=O)/C=C/c1ccc(CNc2cccc(OC(F)(F)F)c2)cc1` [Cpd 506, N-(2-Amino-phenyl)-3-{4-[(3-trifluoromethoxy-phenylamino)-methyl]-phenyl}-acrylamide], the IC50 in assay [1] (HCT-116, Table 5d) turned out to be 11 µM; in assay [2] (setting [3]), 15 µM.
Taken in the same sequence, the figures for `Nc1ccccc1NC(=O)/C=C/c1ccc(C(=O)Nc2ccccc2N)cc1` [Cpd 520, N-(2-Amino-phenyl)-4-[2-(2-amino-phenylcarbamoyl)-vinyl]-benzamide] were 3 µM and 5 µM.
In the case of `COc1ccc(CCNc2nc(NCc3ccc(C(=O)Nc4ccccc4N)cc3)nc(NC3CC3)n2)cc1OC` [Cpd 478], the IC50 in assay [1] (HCT-116, 72 h, Table 5b) was 0.7 µM; in assay [2] (setting [4]), 3 µM.
Consider `Nc1ccccc1NC(=O)/C=C/c1ccc(CNc2nccc(C(F)(F)F)n2)cc1` [Cpd 529], for which the IC50 turned out to be 17 µM in assay [1] (HCT-116, Table 5d) and 5 µM in assay [2] (setting [3]).
For `CN1CCN(c2ccc(NCc3ccc(/C=C/C(=O)Nc4ccccc4N)cc3)cc2F)CC1` [Cpd 527, N-(2-Amino-phenyl)-3-(4-{[3-fluoro-4-(4-methyl-piperazin-1-yl)-phenylamino]-methyl}-phenyl)-acrylamide], in that order: 3 µM and 4 µM.
As for `COc1ccc(CNc2ccc(/C=C(\C)C(=O)Nc3ccccc3N)cn2)cc1` [Cpd 61b, N-(2-aminophenyl)-3-[6-(4-methoxy-benzylamino)-pyridin-3-yl]-2-methyl-acrylamide], the IC50 in assay [1] (HCT-116, 72 h, Table 5c) turned out to be 12 µM; in assay [2] (setting [6]), 7 µM.
`Nc1nc(N)nc(/C=C/c2ccc(C(=O)Nc3ccccc3N)cc2)n1` [Cpd 220]: the IC50 in assay [1] (HCT-116, 72 h, Table 5b) is 6 µM; in assay [2] (setting [4]) it was 7 µM.
For `Nc1ccccc1NC(=O)c1ccc(CN2C(=O)COc3cccnc32)cc1` [Cpd 364, N-(2-Amino-phenyl)-4-(3-oxo-2,3-dihydro-pyrido[3,2-b][1,4]oxazin-4-ylmethyl)-benzamide], the IC50 in assay [1] (HCT-116, 72 h, Table 5F) turned out to be 0.6 µM; in assay [2] (setting [5]), 4 µM.
For `CCN1C(=O)C(Cc2ccc(C(=O)Nc3ccccc3N)cc2)Oc2ccccc21` (centres unmarked) [compound 269, N-(2-Amino-phenyl)-4-(4-ethyl-3-oxo-3,4-dihydro-2H-benzo[1,4]oxazin-2-ylmethyl)-benzamide], in that order: 4 µM and 9 µM.
Taken in the same sequence, the figures for `Nc1ccccc1NC(=O)c1ccc(NCCn2cnc3ccccc3c2=O)nc1` [Cpd 446, N-(2-Amino-phenyl)-6-[2-(4-oxo-4H-quinazolin-3-yl)-ethylamino]-nicotinamide] were 7 µM and 21 µM.
As for `COc1cc(Nc2ccc(/C=C/C(=O)Nc3ccccc3N)cc2)cc(OC)c1OC` [Cpd 481], the IC50 in assay [1] (HCT-116, Table 5d) was found to be 10 µM; in assay [2] (setting [3]), 22 µM.
Take `Nc1ccccc1NC(=O)/C=C/c1ccc(NCc2cccnc2)cc1` [Cpd 111, N-(2-amino-phenyl)-3-{4-[(pyridin-3-ylmethyl)-amino]-phenyl}-acrylamide]: the half-inhibitory concentration (IC50) amounted to 2 µM in assay [1] (HCT-116, 72 h, Table 5c) and 10 µM in assay [2] (setting [6]).
Regarding `Nc1ccccc1NC(=O)/C=C/c1ccc(CNc2cccc(O)c2)cc1` [Cpd 528], the IC50 was determined as 32 µM in assay [1] (HCT-116, Table 5d) and 20 µM in assay [2] (setting [3]).
Taken in the same sequence, the figures for `Nc1ccccc1NC(=O)/C=C/c1ccc(CNc2cccc(S(N)(=O)=O)c2)cc1` [Cpd 538, N-(2-Amino-phenyl)-3-{4-[(3-sulfamoyl-phenylamino)-methyl]-phenyl}-acrylamide] were 12 µM and 4 µM.
Taken in the same sequence, the figures for `COc1cc(/C=C/C(=O)Nc2ccccc2N)cc(OC)c1CNc1cc(OC)c(OC)c(OC)c1` [Cpd 560] were 6 µM and 21 µM.
As to `Nc1ccccc1NC(=O)c1ccc(C#CC(c2ccc(Cl)cc2)N2CCOCC2)cc1` (centres unmarked) [Cpd 201], the IC50 in assay [1] (HCT-116, 72 h, Table 5F) came to 5 µM; in assay [2] (setting [5]), 11 µM.
On to `Cc1nc(-c2ccc(C(=O)Nc3ccccc3N)cc2)no1` [Cpd 353, N-(2-Amino-phenyl)-4-(5-methyl-[1,2,4]oxadiazol-3-yl)-benzamide], for which the IC50 was found to be 10 µM in assay [1] (HCT-116, 72 h, Table 5F) and 3 µM in assay [2] (setting [5]).
For `Cc1nc(Cc2ccc(C(=O)Nc3ccccc3N)cc2)no1` [compound 284, N-(2-Amino-phenyl)-4-(5-methyl-[1,2,4]oxadiazol-3-ylmethyl)-benzamide], in that order: 5 µM and 3 µM.
For the compound `CC(C)c1ccc(NCc2ccc(/C=C/C(=O)Nc3ccccc3N)cc2)cc1` [Cpd 510, N-(2-Amino-phenyl)-3-{4-[(4-isopropyl-phenylamino)-methyl]-phenyl}-acrylamide], the IC50 in assay [1] (HCT-116, Table 5d) amounted to 5 µM; in assay [2] (setting [3]), 6 µM.
Taken in the same sequence, the figures for `COc1cc(Cl)nc(NCc2ccc(/C=C/C(=O)Nc3ccccc3N)cc2)n1` [Cpd 493, N-(2-Amino-phenyl)-3-{4-[(4-chloro-6-methoxy-pyrimidin-2-ylamino)-methyl]-phenyl]-acrylamide] were 5 µM and 4 µM.
Take `Nc1nc(/C=C/c2ccc(C(=O)Nc3ccccc3N)cc2)nc(N2CCCCC2)n1` [Cpd 223]: the IC50 in assay [1] (HCT-116, 72 h, Table 5b) was found to be 2 µM; in assay [2] (setting [4]), 11 µM.
For `Nc1ccccc1NC(=O)c1ccc(CNc2nc(NCCc3cccc(Cl)c3)nc(NC3CC3)n2)cc1` [Cpd 477], in that order: 0.7 µM and 1 µM.
On to `Cc1cc(C)cc(NCc2ccc(C(=O)Nc3ccccc3N)cc2)c1` [Cpd 407, N-(2-Amino-phenyl)-4-[(3,5-dimethyl-phenylamino)-methyl]-benzamide], for which the IC50 in assay [1] (HCT-116, 72 h, Table 5F) worked out at 2 µM; in assay [2] (setting [5]), 3 µM.
In the case of `COc1cc(NCc2ccc(C(=O)Nc3ccccc3N)cc2)cc(OC)c1OC` [Cpd 571], the IC50 in assay [1] (HCT-116, 72 h, Table 5F) was 11 µM; in assay [2] (setting [5]), 4 µM.
In the case of `COc1ccc(-c2ccc(/C=C/C(=O)Nc3ccccc3N)cn2)cc1OC` [Cpd 569], the IC50 came to 6 µM in assay [1] (HCT-116, Table 5d) and 18 µM in assay [2] (setting [3]).
With `NCc1cccc(CNc2ccc(/C=C/C(=O)Nc3ccccc3N)cn2)c1` [Cpd 102, 3-[6-(3-aminomethyl-benzylamino)-pyridin-3-yl]-N-(2-aminophenyl)-acrylamide], the IC50 was 6 µM in assay [1] (HCT-116, 72 h, Table 5c) and 20 µM in assay [2] (setting [6]).
With `Nc1ccccc1NC(=O)c1ccc(CSc2nc3cc(OCCN4CCOCC4)ccc3[nH]2)cc1` [Cpd 236], the IC50 in assay [1] (HCT-116, 72 h, Table 5F) was 6 µM; in assay [2] (setting [5]), 5 µM.
As to `Nc1ccccc1NC(=O)c1ccc(CNc2nc(NC3Cc4ccccc4C3)nc(-c3ccccc3)n2)cc1` [Cpd 485, N-(2-amino-phenyl)-4-{[6-(2-indanyl-amino)-4-phenyl-[1,3,5]-triazin-2-yl-amino]-methyl}-benzamide], the IC50 came out at 3 µM in assay [1] (HCT-116, 72 h, Table 5b) and 0.4 µM in assay [2] (setting [4]).
For `COc1cc(N2C(=O)OCC2c2ccc(C(=O)Nc3ccccc3N)cc2)cc(OC)c1OC` (centres unmarked) [compound 296, N-(2-Amino-phenyl)-4-[2-oxo-3-(3,4,5-trimethoxy-phenyl)-oxazolidin-4-yl]-benzamide], the IC50 in assay [1] (HCT-116, 72 h, Table 5F) turned out to be 7 µM; in assay [2] (setting [5]) it was 20 µM.
In the case of `Nc1ccccc1NC(=O)/C=C/c1ccc(CNc2ccc(Cc3nnn[nH]3)cc2)cc1` [Cpd 544, N-(2-Amino-phenyl)-3-(4-{[4-(1H-tetrazol-5-ylmethyl)-phenylamino]-methyl}-phenyl)-acrylamide], the IC50 in assay [1] (HCT-116, Table 5d) came to 45 µM; in assay [2] (setting [3]), 17 µM.

These data come from patent publication US7868204B2, “Inhibitors of histone deacetylase” (MethylGene Inc., priority 2001, dated 2011).
